Data: patent US20160002267A1, “BENZYL-SUBSTITUTED PYRAZOLOPYRIDINES AND USE THEREOF” (BAYER PHARMA AKTIENGESELLSCHAFT, priority 2013, published 2016)

Target: T1, guanylate cyclase (Rattus norvegicus, UniProt P19686+P20595)
T1 construct: expressed in transfected cells; host or cells: recombinant reporter cell line
T1 sequence (P20595 1-619): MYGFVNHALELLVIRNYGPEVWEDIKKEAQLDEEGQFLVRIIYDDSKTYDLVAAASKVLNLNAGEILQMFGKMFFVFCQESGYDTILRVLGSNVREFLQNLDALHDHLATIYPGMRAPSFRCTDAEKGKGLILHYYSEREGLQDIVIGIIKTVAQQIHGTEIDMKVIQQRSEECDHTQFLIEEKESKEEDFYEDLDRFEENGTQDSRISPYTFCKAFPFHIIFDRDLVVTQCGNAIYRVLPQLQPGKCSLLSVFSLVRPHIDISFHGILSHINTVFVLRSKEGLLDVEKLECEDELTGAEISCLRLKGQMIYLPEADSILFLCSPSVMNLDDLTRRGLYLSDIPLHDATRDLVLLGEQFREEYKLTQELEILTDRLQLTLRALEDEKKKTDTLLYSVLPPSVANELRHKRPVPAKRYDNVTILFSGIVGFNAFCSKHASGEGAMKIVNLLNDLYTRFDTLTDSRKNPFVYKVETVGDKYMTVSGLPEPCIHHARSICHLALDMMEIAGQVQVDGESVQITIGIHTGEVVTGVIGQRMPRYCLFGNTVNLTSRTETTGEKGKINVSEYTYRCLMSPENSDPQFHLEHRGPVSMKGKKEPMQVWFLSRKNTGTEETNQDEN
T1 sequence (P19686 1-690): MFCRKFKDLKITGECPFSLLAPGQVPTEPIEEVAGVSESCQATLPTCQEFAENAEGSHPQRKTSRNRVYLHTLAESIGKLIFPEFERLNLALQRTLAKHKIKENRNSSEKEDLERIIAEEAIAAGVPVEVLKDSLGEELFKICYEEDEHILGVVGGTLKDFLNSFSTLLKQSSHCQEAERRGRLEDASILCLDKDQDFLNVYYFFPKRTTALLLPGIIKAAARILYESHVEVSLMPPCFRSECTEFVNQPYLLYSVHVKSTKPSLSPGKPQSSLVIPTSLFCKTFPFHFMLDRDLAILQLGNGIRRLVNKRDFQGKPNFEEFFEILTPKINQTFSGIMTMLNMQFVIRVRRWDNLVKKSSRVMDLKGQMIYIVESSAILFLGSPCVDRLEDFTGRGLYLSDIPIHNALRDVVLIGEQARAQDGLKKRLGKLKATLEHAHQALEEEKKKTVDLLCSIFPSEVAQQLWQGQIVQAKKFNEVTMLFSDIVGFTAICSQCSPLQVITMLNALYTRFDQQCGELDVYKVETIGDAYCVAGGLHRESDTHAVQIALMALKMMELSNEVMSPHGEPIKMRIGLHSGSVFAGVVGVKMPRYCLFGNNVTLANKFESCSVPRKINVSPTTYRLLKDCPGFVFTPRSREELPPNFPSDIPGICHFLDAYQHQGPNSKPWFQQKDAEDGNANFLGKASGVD
Assay: Effect on a recombinant guanylate cyclase reporter cell line
Type: cell-based
Description: The cellular activity of the compounds according to the invention is determined using a recombinant guanylate cyclase reporter cell line, as described in F. Wunder et al., Anal. Biochem. 339, 104-112 (2005).

CC1(C(F)(F)F)C(=O)Nc2nc(-c3nn(Cc4ccccc4F)c4ncc(F)cc34)nc(NCCC(F)(F)F)c21 (single isomer, unassigned) [Example 1-2, 2-[5-Fluoro-1-(2-fluorobenzyl)-1H-pyrazolo[3,4-b]pyridin-3-yl]-5-methyl-5-(trifluoromethyl)-4-[(3,3,3-trifluoropropyl)amino]-5,7-dihydro-6H-pyrrolo[2,3-d]pyrimidin-6-one]
MEC (minimum effective concentration): 0.3 µM
